The compounds below were run against CD73 (Homo sapiens (Human), UniProt P21589) (assay: Biochemical assay: inhibition of CD73 activity (AMP hydrolysis, Malachite Green readout)). Settings: CD73 0.3208 nM, AMP 15 μM, 25 mM Tris-HCl pH 7.4, RT, absorbance 620 nm.
How it was run: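 Human CD73 (320 pM final) preincubated 15 min at RT with compounds (10-point ½-log titration from 100 μM, duplicates) in 25 mM Tris-HCl pH 7.4, 5 mM MgCl2, 0.01% Brij-35, 0.01% BSA. 15 μM AMP added, 10 min at RT; released phosphate read by Malachite Green absorbance; IC50 determined.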

Chain of CD73 (P21589 27-574): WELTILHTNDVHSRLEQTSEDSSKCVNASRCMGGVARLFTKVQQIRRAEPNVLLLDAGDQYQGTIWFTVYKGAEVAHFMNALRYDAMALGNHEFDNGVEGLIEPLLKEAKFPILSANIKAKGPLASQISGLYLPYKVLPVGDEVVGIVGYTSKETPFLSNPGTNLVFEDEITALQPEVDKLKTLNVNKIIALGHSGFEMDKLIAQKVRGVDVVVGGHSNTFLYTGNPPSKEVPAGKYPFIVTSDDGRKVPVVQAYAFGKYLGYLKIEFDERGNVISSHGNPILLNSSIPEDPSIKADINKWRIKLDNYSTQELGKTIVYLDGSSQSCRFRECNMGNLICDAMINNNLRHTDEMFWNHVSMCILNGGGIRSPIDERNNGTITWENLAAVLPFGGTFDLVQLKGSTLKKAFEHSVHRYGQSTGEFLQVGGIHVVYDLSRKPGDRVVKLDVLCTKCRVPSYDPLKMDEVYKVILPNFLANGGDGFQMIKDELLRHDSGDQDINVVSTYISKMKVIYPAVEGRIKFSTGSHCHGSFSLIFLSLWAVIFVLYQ

Compound	IC50 [nM]
CC(CCO)(OC[C@H]1O[C@@H](n2ncc3c(NC4CCCC4)nc(Cl)nc32)[C@H](O)[C@@H]1O)P(=O)(O)O (stereo partly drawn) [Example 56, (2-(((2R,3S,4R,5R)-5-(6-Chloro-4-(cyclopentylamino)-1H-pyrazolo[3,4-d]pyrimidin-1-yl)-3,4-dihydroxytetrahydrofuran-2-yl)methoxy)-4-hydroxybutan-2-yl)phosphonic acid]	≤ 100
O=P(O)(O)C(CO)OC[C@H]1O[C@@H](n2ncc3c(NC4CCCC4)cc(Cl)nc32)[C@H](O)[C@@H]1O (stereo partly drawn) [Example 57, (1-(((2R,3S,4R,5R)-5-(6-Chloro-4-(cyclopentylamino)-1H-pyrazolo[3,4-b]pyridin-1-yl)-3,4-dihydroxytetrahydrofuran-2-yl)methoxy)-2-hydroxyethyl)phosphonic acid]	≤ 100
O=P(O)(O)C(CO)OC[C@H]1O[C@@H](n2nnc3c(NC4CCCC4)nc(Cl)nc32)[C@H](O)[C@@H]1O (stereo partly drawn) [Example 58, (1-(((2R,3S,4R,5R)-5-(5-Chloro-7-(cyclopentylamino)-3H-[1,2,3]triazolo[4,5-d]pyrimidin-3-yl)-3,4-dihydroxytetrahydrofuran-2-yl)methoxy)-2-hydroxyethyl)phosphonic acid]	≤ 100
Nc1nc(Cl)nc2c1cnn2[C@@H]1O[C@H](COC(CO)P(=O)(O)O)[C@@H](O)[C@H]1O (stereo partly drawn) [Example 59, (1-(((2R,3S,4R,5R)-5-(4-amino-6-chloro-1H-pyrazolo[3,4-d]pyrimidin-1-yl)-3,4-dihydroxytetrahydrofuran-2-yl)methoxy)-2-hydroxyethyl)phosphonic acid]	100 to 1000
O=P(O)(O)C(CO)OC[C@H]1O[C@@H](n2nnc3c(NC4CCCC4)cc(Cl)nc32)[C@H](O)[C@@H]1O (stereo partly drawn) [Example 60, (1-(((2R,3S,4R,5R)-5-(5-chloro-7-(cyclopentylamino)-3H-[1,2,3]triazolo[4,5-b]pyridin-3-yl)-3,4-dihydroxytetrahydrofuran-2-yl)methoxy)-2-hydroxyethyl)phosphonic acid]	≤ 100
CC(CO)(OC[C@H]1O[C@@H](n2ncc3c(N[C@@H]4CCc5ccccc54)nc(Cl)nc32)[C@H](O)[C@@H]1O)P(=O)(O)O (stereo partly drawn) [Example 61, (2-(((2R,3S,4R,5R)-5-(6-chloro-4-(((R)-2,3-dihydro-1H-inden-1-yl)amino)-1H-pyrazolo[3,4-d]pyrimidin-1-yl)-3,4-dihydroxytetrahydrofuran-2-yl)methoxy)-1-hydroxypropan-2-yl)phosphonic acid]	≤ 100
C[C@](CO)(OC[C@H]1O[C@@H](n2ncc3c(NC4CCCC4)nc(Cl)nc32)[C@H](O)[C@@H]1O)P(=O)(O)O [Example 62, ((S)-2-(((2R,3S,4R,5R)-5-(6-chloro-4-(cyclopentylamino)-1H-pyrazolo[3,4-d]pyrimidin-1-yl)-3,4-dihydroxytetrahydrofuran-2-yl)methoxy)-1-hydroxypropan-2-yl)phosphonic acid]	≤ 100
C[C@@](CO)(OC[C@H]1O[C@@H](n2ncc3c(NC4CCCC4)nc(Cl)nc32)[C@H](O)[C@@H]1O)P(=O)(O)O [Example 63, ((R)-2-(((2R,3S,4R,5R)-5-(6-chloro-4-(cyclopentylamino)-1H-pyrazolo[3,4-d]pyrimidin-1-yl)-3,4-dihydroxytetrahydrofuran-2-yl)methoxy)-1-hydroxypropan-2-yl)phosphonic acid]	≤ 100
COC[C@@H](OC[C@H]1O[C@@H](n2ncc3c(NC4CCCC4)nc(Cl)nc32)[C@H](O)[C@@H]1O)P(=O)(O)O [Example 64, ((S)-1-(((2R,3S,4R,5R)-5-(6-chloro-4-(cyclopentylamino)-1H-pyrazolo[3,4-d]pyrimidin-1-yl)-3,4-dihydroxytetrahydrofuran-2-yl)methoxy)-2-methoxyethyl)phosphonic acid]	≤ 100
COC[C@@](C)(OC[C@H]1O[C@@H](n2ncc3c(NC4CCCC4)nc(Cl)nc32)[C@H](O)[C@@H]1O)P(=O)(O)O [Example 65, ((S)-2-(((2R,3S,4R,5R)-5-(6-chloro-4-(cyclopentylamino)-1H-pyrazolo[3,4-d]pyrimidin-1-yl)-3,4-dihydroxytetrahydrofuran-2-yl)methoxy)-1-methoxypropan-2-yl)phosphonic acid]	≤ 100
CC(CO)(OC[C@H]1O[C@@H](n2nnc3c(NC4CCCC4)cc(Cl)nc32)[C@H](O)[C@@H]1O)P(=O)(O)O (stereo partly drawn) [Example 66, (2-(((2R,3S,4R,5R)-5-(5-chloro-7-(cyclopentylamino)-3H-[1,2,3]triazolo[4,5-b]pyridin-3-yl)-3,4-dihydroxytetrahydrofuran-2-yl)methoxy)-1-hydroxypropan-2-yl)phosphonic acid]	≤ 100
CC(CO)(OC[C@H]1O[C@@H](n2nnc3c(NC4CCCC4)nc(Cl)nc32)[C@H](O)[C@@H]1O)P(=O)(O)O (stereo partly drawn) [Example 67, (2-(((2R,3S,4R,5R)-5-(5-chloro-7-(cyclopentylamino)-3H-[1,2,3]triazolo[4,5-d]pyrimin-3-yl)-3,4-dihydroxytetrahydrofuran-2-yl)methoxy)-1-hydroxypropan-2-yl)phosphonic acid]	≤ 100
CC(CO)(OC[C@H]1O[C@@H](n2ncc3c(NC4CCCC4)nc(OCCO)nc32)[C@H](O)[C@@H]1O)P(=O)(O)O (stereo partly drawn) [Example 68, (2-(((2R,3S,4R,5R)-5-(4-(cyclopentylamino)-6-(2-hydroxyethoxy)-1H-pyrazolo[3,4-d]pyrimidin-1-yl)-3,4-dihydroxytetrahydrofuran-2-yl)methoxy)-1-hydroxypropan-2-yl)phosphonic acid]	≤ 100
COC[C@](C)(OC[C@H]1O[C@@H](n2ncc3c(NC4CCCC4)nc(Cl)nc32)[C@H](O)[C@@H]1O)P(=O)(O)O [Example 69, ((R)-2-(((2R,3S,4R,5R)-5-(6-chloro-4-(cyclopentylamino)-1H-pyrazolo[3,4-d]pyrimidin-1-yl)-3,4-dihydroxytetrahydrofuran-2-yl)methoxy)-1-methoxypropan-2-yl)phosphonic acid]	≤ 100
COCC(C)(OC[C@@H]1C[C@@H](O)[C@H](n2ncc3c(NC4CCCC4)nc(Cl)nc32)O1)P(=O)(O)O (stereo partly drawn) [Example 70, (2-(((2S,4R,5R)-5-(6-chloro-4-(cyclopentylamino)-1H-pyrazolo[3,4-d]pyrimidin-1-yl)-4-hydroxytetrahydrofuran-2-yl)methoxy)-1-methoxypropan-2-yl)phosphonic acid]	100 to 1000
CC(CN1CCOCC1)(OC[C@H]1O[C@@H](n2ncc3c(NC4CCCC4)nc(Cl)nc32)[C@H](O)[C@@H]1O)P(=O)(O)O (stereo partly drawn) [Example 71, (2-(((2R,3S,4R,5R)-5-(6-chloro-4-(cyclopentylamino)-1H-pyrazolo[3,4-d]pyrimidin-1-yl)-3,4-dihydroxytetrahydrofuran-2-yl)methoxy)-1-morpholinopropan-2-yl)phosphonic acid]	> 1000
C[C@](CS(C)(=O)=O)(OC[C@H]1O[C@@H](n2ncc3c(NC4CCCC4)nc(Cl)nc32)[C@H](O)[C@@H]1O)P(=O)(O)O [Example 73, ((S)-2-(((2R,3S,4R,5R)-5-(6-chloro-4-(cyclopentylamino)-1H-pyrazolo[3,4-d]pyrimidin-1-yl)-3,4-dihydroxytetrahydrofuran-2-yl)methoxy)-1-(methyslulfonyl)propan-2-yl)phosphonic acid]	≤ 100
C[C@@](CS(C)(=O)=O)(OC[C@H]1O[C@@H](n2ncc3c(NC4CCCC4)nc(Cl)nc32)[C@H](O)[C@@H]1O)P(=O)(O)O [Example 74, ((R)-2-(((2R,3S,4R,5R)-5-(6-chloro-4-(cyclopentylamino)-1H-pyrazolo[3,4-d]pyrimidin-1-yl)-3,4-dihydroxytetrahydrofuran-2-yl)methoxy)-1-(methylsulfonyl)propan-2-yl)phosphonic acid]	≤ 100
O=P(O)(O)C(CO)OC[C@H]1O[C@@H](n2cnc3c(NC4CCCC4)nc(Cl)nc32)[C@H](O)[C@@H]1O (stereo partly drawn) [Example 75, (1-(((2R,3S,4R,5R)-5-(2-chloro-6-(cyclopentylamino)-9H-purin-9-yl)-3,4-dihydroxytetrahydrofuran-2-yl)methoxy)-2-hydroxyethyl)phosphonic acid]	≤ 100
CC(CO)(OC[C@H]1O[C@@H](n2cnc3c(NC4CCCC4)nc(Cl)nc32)[C@H](O)[C@@H]1O)P(=O)(O)O (stereo partly drawn) [Example 76, (2-(((2R,3S,4R,5R)-5-(2-chloro-6-(cyclopentylamino)-9H-purin-9-yl)-3,4-dihydroxytetrahydrofuran-2-yl)methoxy)-1-hydroxypropan-2-yl)phosphonic acid]	≤ 100
COCC(C)(OC[C@H]1O[C@@H](n2ncc3c(N[C@@H]4CCc5ccccc54)nc(Cl)nc32)[C@H](O)[C@@H]1O)P(=O)(O)O (stereo partly drawn) [Example 77, (2-(((2R,3S,4R,5R)-5-(6-chloro-4-(((R)-2,3-dihydro-1H-inden-1-yl)amino)-1H-pyrazolo[3,4-d]pyrimidin-1-yl)-3,4-dihydroxytetrahydrofuran-2-yl)methoxy)-1-methoxypropan-2-yl)phosphonic acid]	≤ 100
CC(CO)(OC[C@H]1O[C@@H](n2nnc3c(N[C@@H]4CCc5ccccc54)nc(Cl)nc32)[C@H](O)[C@@H]1O)P(=O)(O)O (stereo partly drawn) [Example 78, (2-(((2R,3S,4R,5R)-5-(5-chloro-7-(((R)-2,3-dihydro-1H-inden-1-yl)amino)-3H-[1,2,3]triazolo[4,5-d]pyrimidin-3-yl)-3,4-dihydroxytetrahydrofuran-2-yl)methoxy)-1-hydroxypropan-2-yl)phosphonic acid]	≤ 100
COCC(C)(OC[C@H]1O[C@@H](n2ncc3c(NCC4CC4)nc(Cl)nc32)[C@H](O)[C@@H]1O)P(=O)(O)O (stereo partly drawn) [Example 79, (2-(((2R,3S,4R,5R)-5-(6-chloro-4-((cyclopropylmethyl)amino)-1H-pyrazolo[3,4-d]pyrimidin-1-yl)-3,4-dihydroxytetrahydrofuran-2-yl)methoxy)-1-methoxypropan-2-yl)phosphonic acid]	≤ 100

From US11325938B2, “CD73 inhibitors” (ORIC Pharmaceuticals, Inc., priority 2018, dated 2022)
